Reference: US20090258869A1, “METHODS AND COMPOUNDS FOR TREATMENT OR PREVENTION OF SUBSTANCE-RELATED DISORDERS” (The Regents of the University of California, priority 2008, published 2009)

Assays:
[1] = general statement, no test described; cited from earlier work
[2] = system: animals; details: literature; cited from earlier work
[3] = system: Tyrosine hydroxylase (TH); assay: TH protein levels (immunoreactivity) by Western blot in ethanol-treated SH-SY5Y cells; format: cell-based, human
Description: (§1) Cell culture. […] MEM nonessential amino acid solution (Invitrogen).
(§2) Treatments. Cells were treated with ethanol for 12-48 h in low serum media by replacing the media with ethanol every 12 h. […] PI-PLC was incubated with cells at a concentration of 0.3 u/ml for 1 h as described previously (1). Anti-GDNF neutralizing antibodies were dissolved in PBS and were used at a concentration of 10 μg/ml.
(§3) Western blot and immunoprecipitation. Cells were collected and lysed in RIPA buffer plus protease and phosphatase inhibitor cocktails for Western blot and immunoprecipitation as described previously (1,30). Briefly, 15 μg of each homogenate was subjected to an SDS-PAGE gel and blotted on a nitrocellulose membrane for Western blot analysis with anti-TH antibody or other primary antibodies, followed by reprobing with anti-Actin antibody. Alternatively, 500 μg of each homogenate was incubated with 5 μg of anti-TH, anti-HSP90 or anti-Akt antibodies in TBS-T buffer overnight at 4° C.1 followed by a 2-h incubation with Protein G agarose beads. Immunoprecipitates were separated on an SDS-PAGE gel for Western blot analysis.
(§4) Quantification and statistical analysis.

[4] = system: Akt kinase and Hsp90 association; details: 100 mM ethanol 24 h
[5] = system: Hsp90; assay: Hsp90 protein levels by Western blot in SH-SY5Y cells; format: cell-based, human
Description: as §1, §2, §3, §4

[6] = system: Tyrosine hydroxylase (TH); assay: Pulse-chase analysis of 35S-labeled TH protein stability in SH-SY5Y cells; format: cell-based, human
Description: as §1
Pulse-chase analysis. 24 h after ethanol treatment, cells were labeled following a pulse-chase procedure as described previously (31) with modifications. Briefly, cells were incubated with methionine/cystine-free DMEM (Invitrogen) containing 1% dialyzed FBS for 1 h and then labeled in the Met/Cysfree medium containing 25 μCi of Amersham Redivue Pro-Mix L-[35S] in vitro Cell Labeling Mix per ml for 3 h. Dialysis of FBS was performed against the Met/Cys-free medium overnight. After labeling, cells were washed twice with the normal medium and chased in the normal medium without ethanol for 2-8 h before homogenizing as described above. Homogenates were centrifuged and protein concentrations of the supernatants were determined. An equal amount of protein from each sample was immunoprecipitated with anti-TH antibody and separated by electrophoresis on an 8% SDS gel. Autoradiography was performed by exposure of the dried gels to Amersham Storage Phosphor Screen and visualization of radioactive signals using the Typhoon 9410 Variable Mode Imager (GE Healthcare).
as §4

[7] = system: TH mRNA; details: 100 mM ethanol 12 h or 24 h
[8] = system: TH-Hsp90 association; assay: Co-immunoprecipitation of TH with Hsp90 in SH-SY5Y cells; format: cell-based, human; details: 100 mM ethanol 24 h
Description: Treatments. […] PI-PLC was incubated with cells at a concentration of 0.3 u/ml for 1 h as described previously (1). Anti-GDNF neutralizing antibodies were dissolved in PBS and were used at a concentration of 10 μg/ml.

[9] = system: GDNF gene expression; details: in vitro in SH-SY5Y cells and in the midbrain region containing the VTA in vivo; previously reported; cited from earlier work
[10] = 100 mM ethanol 24 h, 25 ng/ml GDNF added for the last 12 h

For CO[C@H]1/C=C\C=C(/C)C(=O)NC2=CC(=O)C(NCCN(C)C)=C(C[C@@H](C)C[C@H](OC)[C@H](O)[C@@H](C)/C=C(\C)[C@@H]1OC(N)=O)C2=O [17-DMAG, 17-(2 dimethylaminoethyl)amino-17-desmethoxy-geldanamycin], the water solubility [1] is listed as “more soluble”.

For COC1=C2C[C@@H](C)C[C@H](OC)[C@H](O)[C@@H](C)/C=C(\C)[C@H](OC(N)=O)[C@@H](OC)/C=C\C=C(/C)C(=O)NC(=CC1=O)C2=O [GA, Geldanamycin], the water solubility [1] is listed as “less than ideal”.

For O=C1CC[C@@]2(O)[C@H]3Cc4ccc(O)c5c4[C@@]2(CCN3CC2CC2)[C@H]1O5 [Naltrexone, naltrexone], the “ethanol consumption in animal studies” value [2] is listed as “decrease”.

For C[C@@H]1C[C@@H]([C@H](O)CC2CC(=O)NC(=O)C2)C(=O)[C@@H](C)C1 [cycloheximide, reference compound], the “ethanol-mediated increases in TH protein levels” value ([3]; 100 mM ethanol 24 h, 30 μg/ml CHX for the last 12 h) was “did not inhibit”.

In the case of CCO [ethanol], the “immunoreactivity of TH” value ([3]; 10 mM ethanol, 24 h) is reported as “significant increase”, the “duration of ethanol-induced increase in TH protein levels” value ([3]; 100 mM ethanol 24 h, detected 24 h after ethanol washout) is reported as “long-lasting” and the TH protein levels ([3]; 100 mM ethanol, after 24 h and 48 h of exposure) is reported as “increase”. The “increase in TH protein levels, dependence on ethanol concentration” value ([3]; different concentrations of ethanol, 24 h) was “dose-dependent manner”, the “association between Akt kinase and Hsp90” value [4] was “did not alter” and the “protein level of Hsp90” value ([5]; 100 mM ethanol alone, 12 h or 24 h) was “did not alter”. The “quantity of 35S-labeled TH protein at all points in the chase time course” value ([6]; 100 mM ethanol 24 h before pulse-chase, compared to control) was “increase”, the “TH mRNA” value [7] was “did not increase” and the “association of TH with Hsp90” value [8] was “induced”.

In the case of ibogaine [reference compound], the GDNF gene expression [9] is listed as “increases” and the “ethanol induced increases in TH levels” value ([3]; 100 mM ethanol 24 h, 10 μM ibogaine added for the last 12 h) is listed as “inhibited”.

B1: GDNF: Recombinant human GDNF polypeptide (glial cell line derived neurotropic factor) from R&D Systems (protein, UniProt P39905 78-211, looked up)
Glial cell line-derived …: SPDKQMAVLPRRERNRQAAAANPENSRGKGRRGQRGKNRGCVLTAIHLNVTDLGLGYETKEELIFRYCSGSCDAAETTYDKILKNLSRNRRLVSDKVGQACCRPIAFDDDLSFLDDNLVYHILRKHSAKRCGCI
With B1 the “ethanol-mediated increase in TH levels” value [3, 10] was “reversed”, the Hsp90 immunoreactivity [5, 10] was “not due to alteration” and the “quantity of 35S-labeled TH at all points on the chase time course” value [6, 10] was “downregulates”. For the same molecule, the “ethanol-mediated association of Hsp90 with TH” value ([8]; 25 ng/ml GDNF added for the last 12 h) was “reversed”.
